PubChem BioAssay (NCI)
“And” between values parts separate entries of the source, which are not always exact repeats. Equal entries are not always repeated.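 Exposure lasted 48 hours, with cells grown in 96-well plates and compounds tested at five concentrations. GI50 marks 50% less growth. At the TGI there is no net growth.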

Tests used:
Assay in all cases: DTP human tumour cell line panel, 48 h
[1] = system: HOP-18 NSCLC
[2] = system: LXFL 529 NSCLC
[3] = system: DLD-1 colon
[4] = system: COLO 205 colon
[5] = system: XF 498 CNS
[6] = system: M19-MEL melanoma
[7] = system: T-47D breast
[8] = system: HS 578T breast
[9] = system: MCF7 breast
[10] = system: MDA-MB-231 breast

N#C/C(=C/c1cccc(Oc2ccccc2)c1)c1ccccc1
TGI [1]: > 100 µM
TGI [2]: > 100 µM
TGI [3]: > 100 µM
TGI [4]: > 100 µM
TGI [5]: > 100 µM
TGI [6]: > 100 µM

O=C1COc2cc(NC(=S)Nc3ccccc3)ccc2N1
TGI [1]: > 100 µM
TGI [2]: > 100 µM
TGI [3]: > 100 µM
TGI [4]: > 100 µM
TGI [5]: > 100 µM
TGI [6]: > 100 µM

NC1=NN(c2ccccc2)C(=O)C1C(=O)CCC(=O)Nc1cccc(Cl)c1 (stereo not drawn)
TGI [1]: > 100 µM
TGI [2]: > 100 µM
TGI [3]: > 100 µM
TGI [4]: > 100 µM
TGI [5]: > 100 µM
TGI [6]: > 100 µM

CC(=O)Oc1cc2c(cc1OC(C)=O)C1(C)CCC2(C)c2cc(OC(C)=O)c(OC(C)=O)cc21
TGI [2]: 19.6 µM
TGI [3]: > 100 µM
TGI [4]: > 100 µM
TGI [5]: 29.1 µM
TGI [6]: 75.2 µM

COc1ccc2nc3cc(Cl)ccc3c(Sc3ccc([N+](=O)[O-])cc3C)c2c1
TGI [1]: > 100 µM
TGI [2]: > 100 µM
TGI [3]: > 100 µM
TGI [4]: 46.1 µM
TGI [5]: > 100 µM
TGI [6]: > 100 µM

O=C(Nc1ccc(C(F)(F)F)cc1[N+](=O)[O-])C(=O)C1NC(=S)NC1=O (stereo not drawn)
TGI [1]: > 100 µM
TGI [2]: > 100 µM
TGI [3]: > 100 µM
TGI [4]: 26.6 µM
TGI [6]: > 100 µM

C[C@]12CC=CC(=O)[C@@]1(C)CCC(=O)C2
TGI [2]: > 100 µM
TGI [3]: > 100 µM
TGI [5]: > 100 µM
TGI [6]: > 100 µM

CC(=O)C1C(c2ccccc2)C2(C)OC(=O)C(C#N)C12C (stereo not drawn)
TGI [1]: > 100 µM
TGI [2]: > 100 µM
TGI [3]: > 100 µM
TGI [4]: > 100 µM
TGI [5]: > 100 µM
TGI [6]: > 100 µM

CC(=O)c1ccc(NC(=O)/C(CC(=O)c2sc(-c3cccnc3)nc2C)=N/NC(N)=O)cc1
TGI [2]: > 100 µM
TGI [4]: 35.2 µM
TGI [5]: > 100 µM
TGI [6]: > 100 µM

O=S(=O)(C1=CC(S(=O)(=O)c2ccccc2)CN(Cc2ccccc2)C1c1cccc2ccccc12)c1ccccc1 (stereo not drawn)
TGI [3]: > 69 µM
TGI [6]: > 69 µM

CCOC1C(Br)Cn2c(=O)c3cc4ccccc4cc3c(=O)n2C1C (stereo not drawn)
TGI [2]: > 100 µM
TGI [3]: > 100 µM
TGI [4]: > 100 µM
TGI [5]: > 100 µM
TGI [6]: > 100 µM

CN(C)CCC(=O)N1C/C(=C\c2ccc(Cl)c(Cl)c2)C(=O)/C(=C/c2ccc(Cl)c(Cl)c2)C1
TGI [1]: 2.3 µM
TGI [7]: 2.48 µM
TGI [2]: 0.637 µM
TGI [8]: 1.73 µM
TGI [3]: 0.468 µM
TGI [4]: 0.636 µM
TGI [5]: 2.32 µM
TGI [9]: 0.701 µM
TGI [10]: 0.799 µM
TGI [6]: 1.13 µM

NC(CCCC(N)P(=O)(O)O)P(=O)(O)O (stereo not drawn)
TGI [1]: > 100 µM
TGI [2]: > 100 µM
TGI [3]: > 100 µM
TGI [4]: > 100 µM
TGI [6]: > 100 µM

CCCCCCCCCCCCCP(=O)(O)O
TGI [1]: > 100 µM
TGI [2]: > 100 µM
TGI [3]: > 100 µM
TGI [4]: > 100 µM
TGI [5]: > 100 µM
TGI [6]: > 100 µM

OCC12C=CC(C1)c1ccccc12 (stereo not drawn)
TGI [1]: > 100 µM
TGI [2]: > 100 µM
TGI [3]: > 100 µM
TGI [4]: > 100 µM
TGI [6]: > 100 µM

N[C@H](C(=O)O)[C@@H]1CC(Cl)=NO1
TGI [1]: > 1000 µM
TGI [7]: > 1000 µM
GI50 [8]: 7.42 µM
TGI [8]: > 1000 µM
TGI [3]: > 1000 µM
GI50 [4]: 43.6 µM
TGI [4]: > 1000 µM
TGI [5]: 250 µM
GI50 [9]: 4.77 µM
TGI [9]: 325 µM
TGI [10]: > 1000 µM

C=CC[P@]1(=O)O[C@H](c2ccccc2)[C@H](C)N1C
TGI [1]: > 100 µM
TGI [2]: > 100 µM
TGI [3]: > 100 µM
TGI [6]: > 100 µM

Cc1cc(N(CC(C)Br)CC(C)Br)ccc1N=Nc1ccccc1C(=O)O (stereo not drawn)
TGI [1]: 8.29 µM
TGI [7]: 5 µM
TGI [8]: 49.2 µM
TGI [3]: 16.6 µM
TGI [4]: 19.7 µM
TGI [5]: 4.62 µM
TGI [9]: 7.67 µM
TGI [10]: 32.8 µM
TGI [6]: 29 µM

CCC1=CCN(c2cc(C)ccn2)OC1c1ccc(OC)cc1 (stereo not drawn)
TGI [2]: > 100 µM
TGI [3]: > 100 µM
TGI [4]: 33.6 µM
TGI [6]: > 100 µM

COc1ccc([C@@]2(O)c3c(ccc(O)c3OC)[C@H]2OC)c(OC)c1
TGI [2]: > 100 µM
TGI [3]: > 100 µM
TGI [4]: > 100 µM
TGI [5]: > 100 µM
TGI [6]: > 100 µM

CC(=O)Oc1c(C)c(-c2ccccc2)c(C)c(-c2ccccc2)c1C(=S)c1ccccc1
TGI [1]: > 100 µM
TGI [2]: > 100 µM
TGI [3]: > 100 µM
TGI [4]: > 100 µM
TGI [6]: > 100 µM

COc1ccc(C=O)cc1O[Si](C)(C)C(C)(C)C
TGI [1]: > 100 µM
TGI [2]: > 100 µM
TGI [3]: > 100 µM
TGI [4]: > 100 µM
TGI [6]: > 100 µM

COC(=O)C(=O)CC(=O)CCn1[nH]c(=O)c(Cl)c(Cl)c1=O
TGI [2]: > 100 µM
TGI [3]: > 100 µM
TGI [4]: > 100 µM
TGI [5]: > 100 µM
TGI [6]: > 100 µM

NCCCNCCS
TGI [1]: > 100 µM
TGI [7]: > 100 µM
TGI [2]: > 100 µM
TGI [8]: > 100 µM
GI50 [4]: > 100 µM and 46.9 µM
TGI [4]: > 100 µM
TGI [5]: > 100 µM
TGI [9]: > 100 µM
TGI [10]: > 100 µM
